In patent US12622875B2, “Dosage form comprising an alkaline agent and an enteric coating layer” (Evonik Operations GmbH, priority 2019, dated 2026):
Where a name gives a salt, the structure may show the parent alone.

Experiments:
[1] = Pantoprazole Sodium solution stability at different pH and temperature (HPLC % assay); format: physicochemical
[2] = Benazepril HCl API solution stability at different pH and temperature (HPLC % assay); format: physicochemical

COc1ccnc(C[S+]([O-])c2nc3ccc(OC(F)F)cc3[nH]2)c1OC (centres unmarked) [Pantoprazole Sodium]
% Assay of Pantoprazole Sodium ([1]; pH 1.2, 22° C., 15 min): 27%
% Assay of Pantoprazole Sodium ([1]; pH 1.2, 22° C., 30 min): 13%
% Assay of Pantoprazole Sodium ([1]; pH 1.2, 22° C., 60 min): 7%
% Assay of Pantoprazole Sodium ([1]; pH 1.2, 22° C., 120 min): 5%
% Assay of Pantoprazole Sodium ([1]; pH 1.2, 22° C., Initial): 88%
% Assay of Pantoprazole Sodium ([1]; pH 1.2, 40° C., 15 min): 17%
% Assay of Pantoprazole Sodium ([1]; pH 1.2, 40° C., 30 min): 6%
% Assay of Pantoprazole Sodium ([1]; pH 1.2, 40° C., 60 min): 4%
% Assay of Pantoprazole Sodium ([1]; pH 1.2, 40° C., 120 min): 3%
% Assay of Pantoprazole Sodium ([1]; pH 3.0, 22° C., 15 min): 32%
% Assay of Pantoprazole Sodium ([1]; pH 3.0, 22° C., 30 min): 20%
% Assay of Pantoprazole Sodium ([1]; pH 3.0, 22° C., 60 min): 5%
% Assay of Pantoprazole Sodium ([1]; pH 3.0, 22° C., 120 min): 1%
% Assay of Pantoprazole Sodium ([1]; pH 3.0, 22° C., Initial): 81%
% Assay of Pantoprazole Sodium ([1]; pH 3.0, 40° C., 15 min): 3%
% Assay of Pantoprazole Sodium ([1]; pH 3.0, 40° C., 30 min): 2%
% Assay of Pantoprazole Sodium ([1]; pH 3.0, 40° C., 60 min): 2%
% Assay of Pantoprazole Sodium ([1]; pH 3.0, 40° C., 120 min): 1%
% Assay of Pantoprazole Sodium ([1]; pH 4.5, 22° C., 15 min): 97%
% Assay of Pantoprazole Sodium ([1]; pH 4.5, 22° C., 30 min): 96%
% Assay of Pantoprazole Sodium ([1]; pH 4.5, 22° C., 60 min): 94%
% Assay of Pantoprazole Sodium ([1]; pH 4.5, 22° C., 120 min): 89%
% Assay of Pantoprazole Sodium ([1]; pH 4.5, 22° C., Initial): 98%
% Assay of Pantoprazole Sodium ([1]; pH 4.5, 40° C., 15 min): 92%
% Assay of Pantoprazole Sodium ([1]; pH 4.5, 40° C., 30 min): 89%
% Assay of Pantoprazole Sodium ([1]; pH 4.5, 40° C., 60 min): 79%
% Assay of Pantoprazole Sodium ([1]; pH 4.5, 40° C., 120 min): 64%
% Assay of Pantoprazole Sodium ([1]; pH 5.5, 22° C., 15 min): 98%
% Assay of Pantoprazole Sodium ([1]; pH 5.5, 22° C., 30 min): 92%
% Assay of Pantoprazole Sodium ([1]; pH 5.5, 22° C., 60 min): 94%
% Assay of Pantoprazole Sodium ([1]; pH 5.5, 22° C., 120 min): 88%
% Assay of Pantoprazole Sodium ([1]; pH 5.5, 22° C., Initial): 98%
% Assay of Pantoprazole Sodium ([1]; pH 5.5, 40° C., 15 min): 97%
% Assay of Pantoprazole Sodium ([1]; pH 5.5, 40° C., 30 min): 86%
% Assay of Pantoprazole Sodium ([1]; pH 5.5, 40° C., 60 min): 77%
% Assay of Pantoprazole Sodium ([1]; pH 5.5, 40° C., 120 min): 53%

CCOC(=O)[C@H](CCc1ccccc1)N[C@H]1CCc2ccccc2N(CC(=O)O)C1=O [Benazepril HCl]
% Assay of Benazepril HCl ([2]; pH 1.2, 22° C., Initial): 101%
% Assay of Benazepril HCl ([2]; pH 1.2, 40° C., 2 Hour): 100%
% Assay of Benazepril HCl ([2]; pH 1.2, 40° C., 4 Hour): 100%
% Assay of Benazepril HCl ([2]; pH 1.2, 40° C., 24 Hour): 99%
% Assay of Benazepril HCl ([2]; pH 3, 22° C., Initial): 100%
% Assay of Benazepril HCl ([2]; pH 3, 40° C., 2 Hour): 99%
% Assay of Benazepril HCl ([2]; pH 3, 40° C., 4 Hour): 99%
% Assay of Benazepril HCl ([2]; pH 3, 40° C., 24 Hour): 98%
% Assay of Benazepril HCl ([2]; pH 4, 22° C., Initial): 100%
% Assay of Benazepril HCl ([2]; pH 4, 40° C., 2 Hour): 99%
% Assay of Benazepril HCl ([2]; pH 4, 40° C., 4 Hour): 99%
% Assay of Benazepril HCl ([2]; pH 4, 40° C., 24 Hour): 98%
% Assay of Benazepril HCl ([2]; pH 7, 22° C., Initial): 100%
% Assay of Benazepril HCl ([2]; pH 7, 40° C., 2 Hour): 100%
% Assay of Benazepril HCl ([2]; pH 7, 40° C., 4 Hour): 100%
% Assay of Benazepril HCl ([2]; pH 7, 40° C., 24 Hour): 97%
% Assay of Benazepril HCl ([2]; pH 9, 22° C., Initial): 101%
% Assay of Benazepril HCl ([2]; pH 9, 40° C., 2 Hour): 99%
% Assay of Benazepril HCl ([2]; pH 9, 40° C., 4 Hour): 99%
% Assay of Benazepril HCl ([2]; pH 9, 40° C., 24 Hour): 91%
